From ChEMBL document CHEMBL4834430, “Design and Structure-Activity Relationships of Isothiocyanates as Potent and Selective N-Acylethanolamine-Hydrolyzing Acid Amidase Inhibitors” (J Med Chem, 2021)
Calls of active or inactive are those of the source. No cut-off for these calls is given here.

Key:
[1] = target: T1, N-acylethanolamine-hydrolyzing acid amidase (Homo sapiens, UniProt Q02083); assay: Inhibition of human NAAA using N-(4-methyl coumarin)-palmitamide as fluorogenic substrate preincubated for 90 mins followed by substrate addition by fluorescence assay
T1 sequence (Q02083 whole entry): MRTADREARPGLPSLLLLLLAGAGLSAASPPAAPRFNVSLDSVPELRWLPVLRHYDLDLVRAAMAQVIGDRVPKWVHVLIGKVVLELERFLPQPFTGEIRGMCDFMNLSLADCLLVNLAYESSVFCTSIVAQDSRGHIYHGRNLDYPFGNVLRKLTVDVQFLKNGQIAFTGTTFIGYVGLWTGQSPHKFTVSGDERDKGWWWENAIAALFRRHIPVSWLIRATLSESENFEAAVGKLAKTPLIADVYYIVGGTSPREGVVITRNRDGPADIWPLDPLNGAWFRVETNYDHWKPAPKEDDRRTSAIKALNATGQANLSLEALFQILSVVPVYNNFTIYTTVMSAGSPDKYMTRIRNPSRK

[2] = target: T2, N-acylethanolamine-hydrolyzing acid amidase (Homo sapiens) (UniProt Q02083); assay: Covalent inhibition of human NAAA assessed as ratio of Kinact/Ki
T2 sequence (whole entry): T1 sequence (Q02083 whole entry)

[3] = Drug concentration in brain of CD-1 mouse at 2 mg/kg, iv administered as single cassette dose measured after 15 mins; assay type: ADME, organism-based; details: read-out: Ct
[4] = target: T3, Cathepsin K (Homo sapiens) (UniProt P43235); assay: Inhibition of recombinant human Cathepsin K at 1 uM using Z-Phe-Arg-AMC as fluorogenic substrate preincubated for 120 mins followed by substrate addition by fluorescence assay
T3 sequence (whole entry): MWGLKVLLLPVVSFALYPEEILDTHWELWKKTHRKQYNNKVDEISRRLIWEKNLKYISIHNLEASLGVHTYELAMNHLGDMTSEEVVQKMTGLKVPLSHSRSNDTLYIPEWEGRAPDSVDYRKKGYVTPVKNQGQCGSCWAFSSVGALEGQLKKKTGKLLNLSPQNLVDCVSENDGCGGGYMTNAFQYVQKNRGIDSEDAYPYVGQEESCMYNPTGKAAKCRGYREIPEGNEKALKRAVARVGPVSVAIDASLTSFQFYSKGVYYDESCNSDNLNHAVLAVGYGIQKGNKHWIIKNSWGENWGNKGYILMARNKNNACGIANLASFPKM

[5] = Drug concentration in plasma of CD-1 mouse at 8 mg/kg, po administered as single cassette dose measured after 30 mins; assay type: ADME, organism-based
[6] = Drug concentration in plasma of CD-1 mouse at 2 mg/kg, iv administered as single cassette dose measured after 15 mins; assay type: ADME, organism-based
[7] = Drug concentration in plasma of CD-1 mouse at 8 mg/kg, po administered as single cassette dose measured after 60 mins; assay type: ADME, organism-based
[8] = Half life in mouse liver microsomes at 1 uM in presence of NADPH by LC-MS/MS analysis; assay type: ADME, Microsome
[9] = Half life in human liver microsomes at 1 uM in presence of NADPH by LC-MS/MS analysis; assay type: ADME, Microsome
[10] = Half life in rat liver microsomes at 1 uM in presence of NADPH by LC-MS/MS analysis; assay type: ADME, Microsome
[11] = target: T3, Cathepsin K (Homo sapiens); assay: Inhibition of recombinant human Cathepsin K at 100 nM using Z-Phe-Arg-AMC as fluorogenic substrate preincubated for 120 mins followed by substrate addition by fluorescence assay relative to control

## COc1ccc(-c2ccc3c(c2)CN([C@H]2C[C@@H](N=C=S)C2)C3)cc1F
[1]
  IC50: 0.0742 µM

## COc1ccc(-c2ccc(CN3CC(N=C=S)C3)c(F)c2)cc1F
[1]
  IC50: 0.176 µM

## Cc1ccc(-c2ccc(CO[C@H]3C[C@@H](N=C=S)C3)cc2)cc1
[1]
  IC50: 0.026 µM
[2]
  Ratio: 2.04 10^6/M/s

## COc1ccc(-c2ccc(C(C)O[C@H]3C[C@@H](N=C=S)C3)c(F)c2)cc1F (stereo partly specified)
[1]
  IC50: 0.0146 µM

## COc1ccc(-c2cc(C(=O)N[C@H]3C[C@@H](N=C=S)C3)on2)cc1
[1]
  IC50: 0.0915 µM

## S=C=N[C@H]1C[C@H](OCc2ccc(-c3ccccc3)cc2)C1
[1]
  IC50: 4.3 µM

## COc1ccc(-c2ccc3c(c2)CCN([C@H]2C[C@@H](N=C=S)C2)C3)cc1F
[1]
  IC50: 0.089 µM

## COc1ccc(-c2noc(CO[C@H]3C[C@@H](N=C=S)C3)n2)cc1
[1]
  IC50: 0.493 µM

## COc1ccc(-c2ccc(CO[C@H]3CC[C@@H](N=C=S)C3)nc2)cc1F (single isomer, unassigned)
[1]
  IC50: 1.45 µM

## COc1ccc(-c2ccc(C(=O)N[C@H]3C[C@@H](N=C=S)C3)nc2)cc1
[3]
  concentration at 0.25 h: 809 ng/g
[1]
  IC50: 0.0076 µM
[4]
  inhibition: inactive
[5]
  concentration at 0.5 h: 12 ng/mL
[6]
  concentration at 0.25 h: 264 ng/mL
[7]
  concentration at 1 h: 8 ng/mL

## CN(Cc1ccc(-c2ccccc2)cc1)[C@H]1C[C@@H](N=C=S)C1
[8]
  half-life at 1 µM: 5.1 min
[1]
  IC50: 1.92 µM
[9]
  half-life at 1 µM: 14.7 min
[10]
  half-life at 1 µM: 4.4 min

## COc1cnc(-c2cnc(CO[C@H]3C[C@@H](N=C=S)C3)c(F)c2)cc1F
[8]
  half-life at 1 µM: 6.3 min
[1]
  IC50: 0.0195 µM
[9]
  half-life at 1 µM: 7.1 min
[11]
  inhibition: 43.7%
[10]
  half-life at 1 µM: 7.4 min

## CCOc1ccc(-c2ccc(CO[C@H]3C[C@@H](N=C=S)C3)c(F)c2)cc1F
[1]
  IC50: 0.0692 µM

## COc1ccc(-c2cc(CO[C@H]3C[C@@H](N=C=S)C3)on2)cc1
[1]
  IC50: 0.0436 µM

## Cn1cc(-c2ccc(CO[C@H]3C[C@@H](N=C=S)C3)c(F)c2)cn1
[1]
  IC50: 0.517 µM

## COc1cnc(-c2ccc(CO[C@H]3C[C@@H](N=C=S)C3)[n+]([O-])c2)cc1F
[1]
  IC50: 0.0235 µM

## COc1ccc(-c2ccc(O[C@H]3C[C@@H](N=C=S)C3)cc2)cc1F
[1]
  IC50: 0.0359 µM

## S=C=N[C@H]1C[C@@H](OCc2ccc(-c3ccccc3)cc2)C1
[8]
  half-life at 1 µM: 14.4 min
[1]
  IC50: 0.093 µM
[2]
  Ratio: 7.23 10^6/M/s
[9]
  half-life at 1 µM: 16.1 min
[10]
  half-life at 1 µM: 19.6 min

## COc1ccc(C2CC(C(=O)N[C@H]3C[C@@H](N=C=S)C3)C2)cc1 (stereo partly specified)
[1]
  IC50: 0.0559 µM

## COc1ccc(-c2ccc(COC3C[C@@H](N=C=S)C3(C)C)nc2)cc1F (single isomer, unassigned)
[1]
  IC50: 0.246 µM

## COc1ccc(N2CCC(C(=O)N[C@H]3C[C@@H](N=C=S)C3)CC2)cc1
[1]
  IC50: 0.137 µM

## COc1ccc(C23CC(C(=O)N[C@H]4C[C@@H](N=C=S)C4)(C2)C3)cc1
[1]
  IC50: 0.128 µM

## Fc1cc(-c2ccc3c(c2)OCCO3)ccc1CO[C@H]1C[C@@H](N=C=S)C1
[3]
  concentration at 0.25 h: 12 ng/g
[1]
  IC50: 0.0118 µM
[2]
  Ratio: 2.43 10^5/M/s
[5]
  concentration at 0.5 h: 12 ng/mL
[6]
  concentration at 0.25 h: 168 ng/mL
[7]
  concentration at 1 h: 7 ng/mL

## COc1ccc(-c2ccc(C(=O)N[C@]34C[C@](N=C=S)(C3)C4)c(F)c2)cc1
[1]
  IC50: 1.23 µM

## COc1ccc(-c2ccc(CO[C@]3(C)C[C@H](N=C=S)C3)c(F)c2)cc1F
[1]
  IC50: 0.48 µM

## S=C=N[C@H]1C[C@@H](OCc2ccc(-c3ccc4occc4c3)cn2)C1
[1]
  IC50: 0.0083 µM
[11]
  inhibition: 55.8%

## Fc1cc(-c2cccc(OCc3ccccc3)c2)ccc1CO[C@H]1C[C@@H](N=C=S)C1
[1]
  IC50: 0.0998 µM

## COc1ccc(-c2ccc(CO[C@H]3CC[C@@H](N=C=S)CC3)cc2)cc1F
[1]
  IC50: 0.386 µM

## COc1ccc(-c2ccc(S(=O)(=O)N[C@H]3C[C@@H](N=C=S)C3)nc2)cc1
[3]
  concentration at 0.25 h: 1150 ng/g
[1]
  IC50: 0.0063 µM
[4]
  inhibition: inactive
[5]
  concentration at 0.5 h: 3 ng/mL
[6]
  concentration at 0.25 h: 126 ng/mL
[7]
  concentration at 1 h: 2 ng/mL

## COc1ccc(-c2ccc(C(=O)N[C@H]3C[C@@H](N=C=S)C3)nc2)cc1F
[3]
  concentration at 0.25 h: 690 ng/g
[8]
  half-life at 1 µM: 14 min
[1]
  IC50: 0.0266 µM
[4]
  inhibition: inactive
[9]
  half-life at 1 µM: 13 min
[5]
  concentration at 0.5 h: 11 ng/mL
[6]
  concentration at 0.25 h: 264 ng/mL
[7]
  concentration at 1 h: 8 ng/mL
[10]
  half-life at 1 µM: 8.6 min

## FC1(F)Oc2ccc(-c3ccc(CO[C@H]4C[C@@H](N=C=S)C4)nc3)cc2O1
[1]
  IC50: 0.171 µM

## COc1ccc(Oc2ccc(C(=O)N[C@H]3C[C@@H](N=C=S)C3)cc2)cc1
[1]
  IC50: 1.42 µM

## COc1ccc(-c2ccc(CO[C@H]3C[C@@H](N=C=S)C3)nc2)nc1
[1]
  IC50: 0.0304 µM

## Fc1cc(-c2cccc(C(F)(F)F)c2)ccc1CO[C@H]1C[C@@H](N=C=S)C1
[3]
  concentration at 0.25 h: 810 ng/g
[8]
  half-life at 1 µM: 13.2 min
[1]
  IC50: 0.0672 µM
[9]
  half-life at 1 µM: 16 min
[5]
  concentration at 0.5 h: 19 ng/mL
[6]
  concentration at 0.25 h: 1010 ng/mL
[7]
  concentration at 1 h: 331 ng/mL
[10]
  half-life at 1 µM: 17.9 min

## Fc1cc(-c2ccc3c(c2)OCC3)ccc1CO[C@H]1C[C@@H](N=C=S)C1
[1]
  IC50: 0.0593 µM

## COc1ccc(-c2ccc(CO[C@H]3C[C@@H](N=C=S)C3)c(F)c2)cc1OC
[1]
  IC50: 0.0589 µM
[2]
  Ratio: 7.97 10^5/M/s

## Fc1cc(-c2ccc3c(c2)OCO3)ccc1CO[C@H]1C[C@@H](N=C=S)C1
[3]
  concentration at 0.25 h: 14 ng/g
[8]
  half-life at 1 µM: 2.4 min
[1]
  IC50: 0.0088 µM
[2]
  Ratio: 3.44 10^5/M/s
[9]
  half-life at 1 µM: 3.3 min
[5]
  concentration at 0.5 h: 31 ng/mL
[6]
  concentration at 0.25 h: 244 ng/mL
[7]
  concentration at 1 h: 13 ng/mL
[10]
  half-life at 1 µM: 6.5 min

## COc1ccc(-c2ccc(S(=O)(=O)N[C@H]3C[C@@H](N=C=S)C3)cc2)cc1
[3]
  concentration at 0.25 h: 1090 ng/g
[1]
  IC50: 0.0023 µM
[4]
  inhibition: inactive
[5]
  concentration at 0.5 h: 20 ng/mL
[6]
  concentration at 0.25 h: 164 ng/mL
[7]
  concentration at 1 h: 20 ng/mL

## COc1ccc(CCCC(=O)N[C@H]2C[C@@H](N=C=S)C2)cc1
[1]
  IC50: 0.062 µM

## COc1ccc(-c2ccc(OC(=O)N[C@H]3C[C@@H](N=C=S)C3)cc2)cc1
[8]
  half-life at 1 µM: 6.2 min
[1]
  IC50: 0.007 µM
[9]
  half-life at 1 µM: 6.4 min
[10]
  half-life at 1 µM: 5 min

## COc1ccc(-c2ccc3c(c2)CN([C@H]2C[C@@H](N=C=S)C2)CC3)cc1F
[1]
  IC50: 0.356 µM

## COc1ccc(-c2cnc(C(=O)N[C@H]3C[C@@H](N=C=S)C3)cn2)cc1
[1]
  IC50: 0.853 µM

## Cc1ccc(-c2ccc(CO[C@H]3C[C@H](N=C=S)C3)cc2)cc1
[1]
  IC50: 0.58 µM

## S=C=NC1CN(CCCCCCc2ccccc2)C1
[1]
  IC50: 0.0083 µM

## COc1ccc(-c2ccc(S(=O)(=O)N[C@H]3C[C@@H](N=C=S)C3)cc2)cc1F
[8]
  half-life at 1 µM: 6 min
[1]
  IC50: 0.0032 µM
[4]
  inhibition: inactive
[9]
  half-life at 1 µM: 8 min
[10]
  half-life at 1 µM: 6 min

## COc1cnc(-c2ccc(CO[C@H]3C[C@@H](N=C=S)C3)cn2)cc1F
[8]
  half-life at 1 µM: 5.1 min
[1]
  IC50: 0.015 µM
[9]
  half-life at 1 µM: 11.8 min
[11]
  inhibition: 56.8%
[10]
  half-life at 1 µM: 10.2 min

## COc1ccc(CCCCCC(=O)N[C@H]2C[C@@H](N=C=S)C2)cc1
[1]
  IC50: 0.0225 µM

## COc1cccc(-c2ccc(CO[C@H]3C[C@@H](N=C=S)C3)cc2)c1
[1]
  IC50: 0.022 µM
[2]
  Ratio: 2.24 10^6/M/s

## COc1cc(-c2ccc(CO[C@H]3C[C@@H](N=C=S)C3)c(F)c2)ccc1F
[1]
  IC50: 0.155 µM

## COc1ccc(-c2ccc(CO[C@H]3C[C@@H](N=C=S)C3)c(F)c2)cc1F
[1]
  IC50: 0.0206 µM
[2]
  Ratio: 2.85 10^6/M/s
[11]
  inhibition: 56.5%
